Measurements taken from patent US12390505B2, “Composition for preventing or treating obesity or diabetes, comprising acanthopanax senticosus extract and garcinia cambogia extract or compound isolated therefrom” (KOREA RESEARCH INSTITUTE OF BIOSCIENCE AND BIOTECHNOLOGY, priority 2020, dated 2025).

Experiments:
Assay type in all cases: in vivo, mouse
[1] = Example 12 HFD mice: serum test; details: serum of HFD mice, oral once daily for 10 weeks; chiisanogenin 50 mg/kg; Garcinia cambogia extract 200 mg/kg; combination 50 + 150 mg/kg; Met 50 mg/kg
Experimental: The test drug was dispersed in 0.5% Carboxymethyl cellulose (CMC) and administered in a volume of 0.2 ml, and the drug was administered orally by force into the stomach using a metal Zonde for oral administration. Blood was collected by cardiac puncture to conduct a blood biochemical test after the end of the final experiment, and then plasma was separated by centrifugation at 3,000 rpm and 4° C. for 15 minutes within 30 minutes after blood collection, and then stored at −74° C. for blood chemistry and ELISA analysis. The contents of total cholesterol, high-density lipoprotein (HDL), low-density lipoprotein (LDL), triglyceride, FFA, glucose, and LDH, which are indicators of lipid content, were measured using an automated biochemical analyzer (Hitachi-720, Hitachi Medical, Japan). IGF-1 and Creatine were diluted in coating buffer, coated on microwells, and left overnight at 4° C. […] 100 μl of the TMB substrate was dispensed, left in the dark for 30 minutes, treated with 50 μl of the stop solution, and absorbance was measured at a wavelength of 450 nm using an ELISA reader. Results obtained from various experiments are recorded as mean±standard error of mean (SEM), and significance verification is determined using the student's T-test analysis method. […]

C/EBP-α mRNA = assay: Example 11 HFD mice: adipose tissue C/EBP-α mRNA analysis; details: oral once daily 10 weeks, 50 mg/kg
Experimental: After adapting 8-week-old male C57b1/6 J mice to the basic diet (AIN-76A diet) for 2 weeks, and consuming Diet Induced Obesity Diet Formulas (D12451) 60 kcal % HFD diet for 2 weeks from 10 weeks of age, and then the test drug was administered when the average body weight reached 28 g or more. The animal breeding room environment of the mouse was maintained in a constant temperature (25±2° C.), constant humidity (50±5%) and a 12-hour photoperiod (light on 07:00˜19:00) in which the light and shade were controlled in an SPF environment. […]
RNA was extracted from tissues using RNAsolB (Tel-Test) solution, and cDNA and real-time PCR analysis were performed using One-step SYBR Green PCR kit (AB science). […] Real time quantitative PCR was performed using the Applied Biosystems 7500 Real-Time PCR system (Applied Biosystems, USA).
(§1) Results obtained from various experiments are recorded as mean±standard error of mean (SEM), and significance verification is determined using the student's T-test analysis method. The data were analyzed using one-way ANOVA to determine a statistically significant variance between each group for each final point measured, and statistical significance between each group was determined using the nonparametric Mann-Whitney test and Dunnett's multiple comparison test (IBM SPSS statistics version 19.0 statistic software, Inc, IBM, USA).

[2] = Example 12 HFD mice: oral glucose tolerance test; details: oral once daily 10 weeks, 50 mg/kg
Experimental: After adapting 8-week-old male C57b1/6 J mice to the basic diet (AIN-76A diet) for 2 weeks, and consuming Diet Induced Obesity Diet Formulas (D12451) 60 kcal % HFD diet for 2 weeks from 10 weeks of age, and then the test drug was administered when the average body weight reached 28 g or more. The animal breeding room environment of the mouse was maintained in a constant temperature (25±2° C.), constant humidity (50±5%) and a 12-hour photoperiod (light on 07:00˜19:00) in which the light and shade were controlled in an SPF environment. […] The test drug was dispersed in 0.5% Carboxymethyl cellulose (CMC) and administered in a volume of 0.2 ml, and the drug was administered orally by force into the stomach using a metal Zonde for oral administration.
[…] Blood to be used for blood glucose measurement was collected from the tail vein of a mouse, and blood glucose was measured using a serum analyzer (Accutrend plus GCTL Cobas Roche, Germany).
as §1

In the case of CN(C)C(=N)N=C(N)N [Met, Metformin], the “Creatin (mg/dL), mean ± standard error” value [1] was 0.564 ± 0.011 mg/dL, the “Inhibition Rate (C/EBP-α mRNA)” value (C/EBP-α mRNA) was 75% and the “C/EBP-α mRNA expression in adipose tissue” value (C/EBP-α mRNA; GAPDH control) was 1.153 ± 0.320. For the same molecule, the “Inhibition Rate (OGTT)” value [2] was 23% and the “OGTT (30 min-0 min, mg/dL)” value ([2]; glucose 1 g/kg) was 148.0 ± 18.50^ mg/dL.
